These results are taken from article PMC11647725, “Discovery of 4-(5-Membered)Heteroarylether-6-methylpicolinamide Negative Allosteric Modulators of Metabotropic Glutamate Receptor Subtype 5” (ACS Medicinal Chemistry Letters, 2024).

A word on the pIC50: it is −log10 of the IC50, conventionally taken in molar units. For orientation: IC50 means the concentration that inhibits the measured activity by half. For orientation: CLint scaled means the capacity of the preparation to metabolise the compound, expressed as a volume cleared per time. Read a high CLint scaled as rapid turnover. In general, Kp refers to tissue or fluid exposure divided by exposure in the circulation.

One series has as its target T1, human mGlu5 (Homo sapiens, UniProt P41594).
T1 construct: expressed in transfected cells
The series can be described thus: Calcium mobilization assay in human mGlu5-HEK293A cells (NAM, EC80 glutamate). The format is cell-based. To be noted: for fold increase in hmGlu5 potency: 22fC vs 22bC, 22gA vs 22iA, 22iA vs 22hA, 22iB vs 22hB; for % GluMin: efficacy of the NAM to reduce an EC80 response of glutamate; for % GluMin / pIC50 / IC50: human mGlu5-HEK293A cells; for pIC50 / IC50: EC80 fixed concentration of glutamate; for pIC50: n = 2 in triplicate; for IC50: read-out: hmGlu5 IC50. (Calcium flux is commonly read through the fluorescence of an indicator in the cells.)

Series [1] in a line: Intrinsic clearance in rat liver microsomes. The format is in vitro ADME. The settings on record: for CLint scaled at 40 min, 1 µM: pH 7.4, rat liver microsomes; for CLhep, rat: predicted hepatic clearance based on microsomal CLint. The method, then: (§1) Mean values for each species were calculated from 3 replicates.
(§2) Intrinsic Clearance in Rat and Human Liver Microsomes
(§3) The in vitro intrinsic clearance (CL int) was investigated in commercially obtained hepatic microsomes from rat and human donors using the substrate depletion (i.e., loss-of-parent vs. time, or t 1/2 method) approach with analyte detection via liquid chromatography-tandem mass spectrometry (LC-MS/MS). For each species, mean %parent remaining values at each time point were calculated from replicates raw data (analyte:IS peak area ratios) and used to determine in vitro t 1/2 and CLint.
(§4) Experiments were carried out using a robot-assisted (TECAN model Evo 200). Compound was incubated (1 µM final concentration) in buffer (100 mM potassium phosphate pH 7.4 with 3 mM MgCl2) containing hepatic microsomes (0.5 mg/mL final concentration) from multiple species, discretely, at 37 °C under constant orbital shaking. After 5 minutes (pre-incubation), reactions were initiated by addition of nicotinamide adenine dinucleotide phosphate (NADPH, 1 mM final concentration). At selected time intervals (0, 3, 7, 15, 25, and 45 minutes) post-addition of NADPH, aliquots (50 µL) were taken and placed into a 96-shallow-well plate containing ice cold acetonitrile (150 µL) with carbamazepine (IS, 50 nM). The plates were then centrifuged (3000 rcf at 4 °C) for 10 minutes. The supernatants were transferred to a new 96-shallow-well daughter plate and diluted (1:1 v/v) with water (Milli-Q filtered). The plates were then sealed in preparation for LC-MS/MS analysis (see below).
(§5) Raw LC-MS/MS peak area data generated from the assay samples were used to construct natural log-transformed %parent remaining vs. time plots (using t = 0 minute post-NADPH addition sample data as starting point set to 100%). In vitro compound half-life (t 1/2) values were obtained using the following […]
(§6) k is the slope from linear regression analysis of the natural log-transformed data (using means from Where all replicates at each time point). Resulting t 1/2 values were then used to calculate hepatic CLint values according to the following equation and with the use of species-specific scale-up factors for liver weight (grams) per total body weight (kg): […]
(§7) CLint = in vitro t1/2 x 0.5 mg microsomes x 1 gram liver x kg body wt aScale-up factors used are 45 (rat) and 20 (human).4
(§8) Predicted hepatic clearance (CLhep) was calculated using the following equation: […]
(§9) Qh represents hepatic blood flow (mL/min/kg): 21 for human, 70 for rat, and 90 for mouse.
(§10) Prepared samples were injected (10 µL each) onto an AB Sciex Triple Quad 4500 mass spectrometer system with an Agilent 1260 Infinity II pump and autosampler. Mass spectrometer conditions are described in Table S1. Quantitation of compounds was performed via AB Sciex Multiquant software using the raw analyte:IS peak area ratios. The typical detection range was 0.5 ng/mL to ≥ 5,000 ng/mL utilizing a quadratic equation regression with 1/x2 weighting.
(§11) Correction for dilution of all brain samples (in extraction buffer and subsequently in blank plasma, as previously described) was performed post-quantitation. The corrections for dilution in extraction buffer employed correction factors specific to each brain weight (not shown).

Series [2] is described as follows: Intrinsic clearance in human liver microsomes. To be noted: for CLint scaled at 40 min, 1 µM: pH 7.4, human liver microsomes; for CLhep, human: predicted hepatic clearance based on microsomal CLint. It is filed as in vitro ADME. The method, then:
as §1, §2, §3, §4, §5, §6, §7, §8, §9, §10, §11

The nature of series [3]: Binding in plasma from rat (equilibrium dialysis). It is filed as in vitro ADME. The settings on record: for fraction unbound at 6 h, 5 µM: rat, plasma, equilibrium dialysis, read-out: Rat fu,plasma. The method, then:
(§12) Binding in plasma from rat and human.
(§13) Determination of compounds’ fraction unbound (f u) in plasma from rat and human was conducted in vitro via equilibrium dialysis using HTDialysis membrane plates. Dialysis membranes (four paired strips per HTD assay) were hydrated as described by the manufacturer and inserted into the HTD plate, which was assembled and prepared for sample addition by the dispensing of blank buffer (DPBS, 100 µL/well) into the ‘top half’ of each membrane-split well. Each compound was diluted into plasma from each species (5 µM final concentration), which was aliquoted in triplicate to the ‘bottom half’ of the prepared HTD plate wells. The HTD plate was sealed and incubated for 6 hours at 37 °C. Following incubation, each well (both top and bottom halves) were transferred (20 µL) to the corresponding wells of a 96-shallow-well (V-bottom) plate. The daughter plates were then matrix-matched (buffer side wells received equal volume of plasma, and plasma side wells received equal volume of buffer), and extraction solution (120 µL; acetonitrile containing 50 nM carbamazepine as IS) was added to all wells of both daughter plates to precipitate protein and extract test article. The plates were then sealed and centrifuged (3500 rcf) for 10 minutes at ambient temperature. Supernatant (60 µL) from each well of the daughter plates was then transferred to the corresponding wells of new daughter plates (96-shallow-well, V bottom) containing water (Milli-Q, 60 µL/well), and the plates were sealed in preparation for LC-MS/MS analysis (see below). fu was calculated as (analyte to IS MS peak area ratio from Trans-buffer side) / (analyte to IS MS peak area ratio from Cis-plasma side). Mean values for each species were calculated from 3 replicates. […]
(§14) Mean values for each species were calculated from 3 replicates. […]
as §4, with “After” for “Experiments were carried out using a robot-assisted (TECAN model Evo 200). Compound was incubated (1 µM final concentration) in buffer (100 mM potassium phosphate pH 7.4 with 3 mM MgCl2) containing hepatic microsomes (0.5 mg/mL final concentration) from multiple species, discretely, at 37 °C under constant orbital shaking. After”

Series [4] in a line: Binding in plasma from human (equilibrium dialysis). The format is in vitro ADME. To be noted: human, plasma, read-out: Human fu,plasma. The method, then:
as §12, §13, §14
as §4, with “After” for “Experiments were carried out using a robot-assisted (TECAN model Evo 200). Compound was incubated (1 µM final concentration) in buffer (100 mM potassium phosphate pH 7.4 with 3 mM MgCl2) containing hepatic microsomes (0.5 mg/mL final concentration) from multiple species, discretely, at 37 °C under constant orbital shaking. After”
On the technique in general: In equilibrium dialysis free small molecules cross a membrane that holds back macromolecules.

A short description of series [5]: Binding in brain homogenate from rat (equilibrium dialysis). To be noted: rat brain homogenates; for fraction unbound at 6 h, 1 µM: rat, brain homogenate, read-out: Rat fu,brain. It is filed as in vitro ADME. The method, then: transferred to the corresponding wells of new daughter plates (96-shallow-well, V bottom) containing water (Milli-Q, 60 µL/well), and the plates were sealed in preparation for LC-MS/MS analysis (see below). fu was calculated as (analyte to IS MS peak area ratio from Trans-buffer side) / (analyte to IS MS peak area ratio from Cis-plasma side). Mean values for each species were calculated from 3 replicates.
Binding in brain homogenate from rat.
Determination of fraction unbound (f u) in brain homogenate from rat was conducted using the same methodology and procedure than described for plasma protein binding assay with the following modifications: 1) a final compound concentration of 1 μM was used, 2) naïve rat brains were homogenized in DPBS (1:3 composition of brain: DPBS, w/w) using a Mini-Bead Beater™ machine in order to obtain […]
The diluted fraction unbound (f u2) in brain was calculated as (analyte to IS MS peak area ratio from Trans-buffer side) / (analyte to IS MS peak area ratio from Cis-brain homogenate side). Undiluted fraction unbound for the brain was calculated using the following equation: […]
as §14

A short description of series [6]: IV plasma-brain level determination (PBL) in rat. The format is in vivo. To be noted: male, Sprague-Dawley, brain and plasma, SD rat, 0.2 mg/kg IV; for Kp at 0.25 h: total brain-to-plasma partition ratio; for Kp uu at 0.25 h: unbound brain-to-plasma partition ratio.

Bounds are passed on as bounds.

T1 sequence (P41594 21-1212): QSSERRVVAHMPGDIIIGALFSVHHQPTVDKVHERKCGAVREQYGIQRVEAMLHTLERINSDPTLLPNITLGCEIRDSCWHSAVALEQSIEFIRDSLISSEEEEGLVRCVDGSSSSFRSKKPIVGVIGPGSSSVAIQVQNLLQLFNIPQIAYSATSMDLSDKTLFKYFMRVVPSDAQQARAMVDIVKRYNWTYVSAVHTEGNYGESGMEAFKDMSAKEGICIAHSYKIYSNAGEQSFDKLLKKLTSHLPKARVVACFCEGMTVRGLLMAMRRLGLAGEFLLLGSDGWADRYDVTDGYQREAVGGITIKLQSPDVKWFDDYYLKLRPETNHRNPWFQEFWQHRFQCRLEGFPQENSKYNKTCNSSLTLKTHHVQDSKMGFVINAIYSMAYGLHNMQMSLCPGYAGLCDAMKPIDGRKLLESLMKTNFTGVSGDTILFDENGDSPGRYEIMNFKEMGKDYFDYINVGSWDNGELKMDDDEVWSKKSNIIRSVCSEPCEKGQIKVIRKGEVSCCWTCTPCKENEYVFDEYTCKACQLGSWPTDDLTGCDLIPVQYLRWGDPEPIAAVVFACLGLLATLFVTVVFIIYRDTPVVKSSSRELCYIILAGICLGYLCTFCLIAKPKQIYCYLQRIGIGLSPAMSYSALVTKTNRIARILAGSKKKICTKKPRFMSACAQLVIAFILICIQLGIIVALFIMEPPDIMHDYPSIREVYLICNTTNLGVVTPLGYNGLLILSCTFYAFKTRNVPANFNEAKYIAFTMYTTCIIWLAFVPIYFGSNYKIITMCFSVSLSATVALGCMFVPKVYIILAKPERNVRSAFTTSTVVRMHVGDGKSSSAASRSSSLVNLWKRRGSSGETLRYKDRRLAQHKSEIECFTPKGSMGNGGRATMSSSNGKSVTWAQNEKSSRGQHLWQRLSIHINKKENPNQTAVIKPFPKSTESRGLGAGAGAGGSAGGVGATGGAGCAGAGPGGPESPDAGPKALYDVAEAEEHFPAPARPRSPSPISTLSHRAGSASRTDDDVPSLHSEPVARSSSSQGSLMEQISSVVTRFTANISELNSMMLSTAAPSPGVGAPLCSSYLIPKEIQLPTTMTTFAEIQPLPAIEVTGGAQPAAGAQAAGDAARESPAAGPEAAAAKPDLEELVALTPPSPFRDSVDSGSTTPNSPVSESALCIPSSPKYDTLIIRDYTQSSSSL

Consider `Cc1cc(Oc2cnn(C)c2)cc(C(=O)Nc2nc(C)cs2)n1` [22iB], for which, at human mGlu5, the “fold increase in hmGlu5 potency” value amounted to 3.4 fold, the “% GluMin” value came to 2%, the pIC50 was 7.56 and the half-maximal inhibitory concentration (IC50) turned out to be 28 nM. For the same compound, in series [1], the CLint scaled at 40 min, 1 µM was determined as 44 mL/min/kg and the “CLhep, rat” value is listed as 27 mL/min/kg. In addition, in series [2], the CLint scaled at 40 min, 1 µM stood at 46 mL/min/kg and the “CLhep, human” value was 14 mL/min/kg. Further, the fraction unbound at 6 h, 5 µM in series [3] came to 0.089. In addition, in series [4], the fraction unbound at 6 h, 5 µM turned out to be 0.063. Moreover, in series [5], the fraction unbound at 6 h, 1 µM was determined as 0.014. In addition, in series [6], the Kp at 0.25 h stood at 1.37 and the Kp uu at 0.25 h stood at 0.22.

`Cc1cccc(NC(=O)c2cc(Oc3cnn(C)c3)cc(C)n2)n1` [22iC]: at human mGlu5, the “% GluMin” value is given as 1%, the negative-log IC50 (pIC50) is given as 7.38 and the IC50 stood at 41 nM. Moreover, in series [1], the CLint scaled at 40 min, 1 µM stood at 234 mL/min/kg and the “CLhep, rat” value is on record as 54 mL/min/kg. Moreover, in series [2], the CLint scaled at 40 min, 1 µM amounted to 77 mL/min/kg and the “CLhep, human” value is listed as 17 mL/min/kg. Further, the fraction unbound at 6 h, 5 µM in series [3] amounted to 0.059. The fraction unbound at 6 h, 5 µM in series [4] amounted to 0.041. Besides, the fraction unbound at 6 h, 1 µM in series [5] turned out to be 0.013. In series [6], the concentration ratio (Kp) at 0.25 h amounted to 1.04 and the Kp uu at 0.25 h turned out to be 0.23.

For `Cc1cccc(NC(=O)c2cc(Oc3cc(C)nn3C)cc(C)n2)n1` [22fC], on human mGlu5, the “fold increase in hmGlu5 potency” value is recorded as 7.8 fold, the “% GluMin” value is reported as 2%, the pIC50 was determined as 6.69 and the concentration for half-maximal inhibition (IC50) turned out to be 207 nM. Also, in series [1], the CLint scaled at 40 min, 1 µM was 436 mL/min/kg and the “CLhep, rat” value was 60 mL/min/kg. In addition, in series [2], the CLint scaled at 40 min, 1 µM worked out at 71 mL/min/kg and the “CLhep, human” value is 16 mL/min/kg. Also, the “stability in rat plasma” value in series [3] (samples had low analyte peaks) is “possibly be unstable in rat plasma”. Besides, the fraction unbound at 6 h, 5 µM in series [4] was 0.037. Moreover, the “Rat fu,brain” value in series [5] (fraction unbound) is on record as 0.008. The fraction unbound at 6 h, 1 µM in series [5] is less than 0.01. In addition, the Kp at 0.25 h in series [6] was found to be 1.02.
